Where two headings read alike, the source gives them in different places.
Columns and labels:
[1] = system: Key Broadleaf Weed and Crop Species; assay: Post-emergent Test II herbicidal activity (Table 15); format: in vivo; conditions: post-emergence, 336 h, 14 d; for pest or weed control at 35 g/ha: 35 g ai/ha; for pest or weed control at 70 g/ha: 70 g ai/ha; for pest or weed control at 140 g/ha: 140 g ai/ha
In short: (§1)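 Visual injury rating (0 = none, 100% = complete kill) made 14 d after treatment, relative to untreated plants. Compounds in an acetone/DMSO/aqueous crop-oil/surfactant spray, at top rate and serial 1/2×-1/16× rates, were applied at 187 L/ha overhead to first-second true leaf plants raised 7-21 d in greenhouse.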

[2] = system: Key Grass and Sedge Weeds as well as Grass Crops; assay: Post-emergent Test II herbicidal activity (Table 16); format: in vivo; conditions: post-emergence, 336 h; for pest or weed control at 35 g/ha: 35 g ai/ha; for pest or weed control at 70 g/ha: 70 g ai/ha; for pest or weed control at 140 g/ha: 140 g ai/ha
In short: as §1

[3] = Abutilon theophrasti, velvetleaf (Abutilon theophrasti), read-out: Visual Growth Reduction (%) 14 Days After Application, ABUTH
[4] = Amaranthus retroflexus, redroot pigweed (Amaranthus retroflexus), read-out: Visual Growth Reduction (%) 14 Days After Application, AMARE
[5] = Brassica napus, oilseed rape, canola (Brassica napus), read-out: Visual Growth Reduction (%) 14 Days After Application, BRSNN
[6] = Chenopodium album, lambsquarters (Chenopodium album), read-out: Visual Growth Reduction (%) 14 Days After Application, CHEAL
[7] = Euphorbia heterophylla, wild poinsettia (Euphorbia heterophylla), read-out: Visual Growth Reduction (%) 14 Days After Application, EPHHL
[8] = Helianthus annuus, sunflower (Helianthus annuus), read-out: Visual Growth Reduction (%) 14 Days After Application, HELAN
[9] = Cyperus esculentus, yellow nutsedge (Cyperus esculentus), 14 days after application, read-out: Visual Growth Reduction (%) 14 Days After Application CYPES
[10] = Echinochloa crus-galli, barnyardgrass (Echinochloa crus-galli), 14 days after application, read-out: Visual Growth Reduction (%) 14 Days After Application ECHCG
[11] = Oryza sativa, rice (Oryza sativa), 14 days after application, read-out: Visual Growth Reduction (%) 14 Days After Application ORYSA
[12] = Triticum aestivum, wheat, spring (Triticum aestivum), 14 days after application, read-out: Visual Growth Reduction (%) 14 Days After Application TRZAS
[13] = Zea mays, maize, corn (Zea mays), 14 days after application, read-out: Visual Growth Reduction (%) 14 Days After Application ZEAMX
[14] = Cyperus esculentus, yellow nutsedge (Cyperus esculentus), 14 d, read-out: Visual Growth Reduction (%) 14 Days After Application, CYPES
[15] = Echinochloa crus-galli, barnyardgrass (Echinochloa crus-galli), 14 d, read-out: Visual Growth Reduction (%) 14 Days After Application, ECHCG
[16] = Oryza sativa, rice (Oryza sativa), 14 d, read-out: Visual Growth Reduction (%) 14 Days After Application, ORYSA
[17] = Setaria faberi, giant foxtail (Setaria faberi), 14 d, read-out: Visual Growth Reduction (%) 14 Days After Application, SETFA
[18] = Triticum aestivum, wheat, spring (Triticum aestivum), 14 d, read-out: Visual Growth Reduction (%) 14 Days After Application, TRZAS
[19] = Zea mays, maize, corn (Zea mays), 14 d, read-out: Visual Growth Reduction (%) 14 Days After Application, ZEAMX

## Nc1c(F)c(-c2ccc3ccsc3c2)nc(C(=O)O)c1Cl [Compound 3.13]
[1]; [3]
  pest or weed control at 35 g/ha: 0 to 29%
  pest or weed control at 70 g/ha: 0 to 29%
  pest or weed control at 140 g/ha: 75 to 84%
[1]; [4]
  pest or weed control at 35 g/ha: 95 to 100%
  pest or weed control at 70 g/ha: 95 to 100%
  pest or weed control at 140 g/ha: 95 to 100%
[1]; [5]
  pest or weed control at 35 g/ha: 0 to 29%
  pest or weed control at 70 g/ha: 0 to 29%
  pest or weed control at 140 g/ha: 60 to 74%
[1]; [6]
  pest or weed control at 35 g/ha: 85 to 94%
  pest or weed control at 70 g/ha: 95 to 100%
  pest or weed control at 140 g/ha: 95 to 100%
[1]; [7]
  pest or weed control at 35 g/ha: 0 to 29%
  pest or weed control at 70 g/ha: 0 to 29%
  pest or weed control at 140 g/ha: 60 to 74%
[1]; [8]
  pest or weed control at 35 g/ha: 85 to 94%
  pest or weed control at 70 g/ha: 85 to 94%
  pest or weed control at 140 g/ha: 85 to 94%
[2]; [9]
  pest or weed control at 35 g/ha: 0 to 29%
  pest or weed control at 70 g/ha: 0 to 29%
  pest or weed control at 140 g/ha: 0 to 29%
[2]; [10]
  pest or weed control at 35 g/ha: 60 to 74%
  pest or weed control at 70 g/ha: 60 to 74%
  pest or weed control at 140 g/ha: 75 to 84%
[2]; [11]
  pest or weed control at 35 g/ha: 0 to 29%
  pest or weed control at 70 g/ha: 0 to 29%
  pest or weed control at 140 g/ha: 0 to 29%
[2]; [12]
  pest or weed control at 35 g/ha: 0 to 29%
  pest or weed control at 70 g/ha: 0 to 29%
  pest or weed control at 140 g/ha: 0 to 29%
[2]; [13]
  pest or weed control at 35 g/ha: 60 to 74%
  pest or weed control at 70 g/ha: 60 to 74%
  pest or weed control at 140 g/ha: 60 to 74%
other
  melting point: 165 to 167 °C

## COC(=O)c1nc(-c2ccc(Cl)c3ccoc23)cc(N)c1Cl [Compound 2.25]
[1]; [3]
  pest or weed control at 35 g/ha: 75 to 84%
  pest or weed control at 70 g/ha: 75 to 84%
  pest or weed control at 140 g/ha: 95 to 100%
[1]; [4]
  pest or weed control at 35 g/ha: 95 to 100%
  pest or weed control at 70 g/ha: 95 to 100%
  pest or weed control at 140 g/ha: 95 to 100%
[1]; [5]
  pest or weed control at 35 g/ha: 0 to 29%
  pest or weed control at 70 g/ha: 45 to 59%
  pest or weed control at 140 g/ha: 75 to 84%
[1]; [6]
  pest or weed control at 35 g/ha: 95 to 100%
  pest or weed control at 70 g/ha: 95 to 100%
  pest or weed control at 140 g/ha: 95 to 100%
[1]; [7]
  pest or weed control at 35 g/ha: 0 to 29%
  pest or weed control at 70 g/ha: 75 to 84%
  pest or weed control at 140 g/ha: 85 to 94%
[1]; [8]
  pest or weed control at 35 g/ha: 0 to 29%
  pest or weed control at 70 g/ha: 30 to 44%
  pest or weed control at 140 g/ha: 85 to 94%
[2]; [14]
  pest or weed control at 35 g/ha: 0 to 29%
  pest or weed control at 70 g/ha: 30 to 44%
  pest or weed control at 140 g/ha: 75 to 84%
[2]; [15]
  pest or weed control at 35 g/ha: 0 to 29%
  pest or weed control at 70 g/ha: 0 to 29%
  pest or weed control at 140 g/ha: 0 to 29%
[2]; [16]
  pest or weed control at 35 g/ha: 0 to 29%
  pest or weed control at 70 g/ha: 0 to 29%
  pest or weed control at 140 g/ha: 0 to 29%
[2]; [17]
  pest or weed control at 35 g/ha: 0 to 29%
  pest or weed control at 70 g/ha: 0 to 29%
  pest or weed control at 140 g/ha: 0 to 29%
[2]; [18]
  pest or weed control at 35 g/ha: 0 to 29%
  pest or weed control at 70 g/ha: 0 to 29%
  pest or weed control at 140 g/ha: 0 to 29%
[2]; [19]
  pest or weed control at 35 g/ha: 0 to 29%
  pest or weed control at 70 g/ha: 0 to 29%
  pest or weed control at 140 g/ha: 45 to 59%
other
  melting point: 169 °C

Reference: patent US20170050957A1, “4-AMINO-6-(HETEROCYCLIC)PICOLINATES AND 6-AMINO-2-(HETEROCYCLIC)PYRIMIDINE-4-CARBOXYLATES AND THEIR USE AS HERBICIDES” (Dow AgroSciences LLC, priority 2013, published 2017)
